Data: PubChem BioAssay (NCI)
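In this assay, cells in 96-well plates receive the compound at five concentrations for 48 hours. Endpoints are linearly interpolated between the surrounding concentrations. At the GI50, growth is halved. TGI is the concentration that stops growth completely.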

Experiments:
Assay in all cases: NCI-60 cell line screen, 48 h
MDA-MB-231 breast = system: MDA-MB-231 breast
SK-OV-3 ovarian = system: SK-OV-3 ovarian
NCI-H226 lung = system: NCI-H226 lung
RPMI-8226 leukemia = system: RPMI-8226 leukemia
UACC-62 melanoma = system: UACC-62 melanoma
SNB-75 CNS = system: SNB-75 CNS
OVCAR-8 ovarian = system: OVCAR-8 ovarian
HCT-15 colon = system: HCT-15 colon
IGROV1 ovarian = system: IGROV1 ovarian
DU-145 prostate = system: DU-145 prostate

Structure (SMILES) | GI50 (MDA-MB-231 breast) [µM] | TGI (MDA-MB-231 breast) [µM] | GI50 (SK-OV-3 ovarian) [µM] | TGI (SK-OV-3 ovarian) [µM] | GI50 (NCI-H226 lung) [µM] | TGI (NCI-H226 lung) [µM] | GI50 (RPMI-8226 leukemia) [µM] | TGI (RPMI-8226 leukemia) [µM] | GI50 (UACC-62 melanoma) [µM] | TGI (UACC-62 melanoma) [µM] | GI50 (SNB-75 CNS) [µM] | TGI (SNB-75 CNS) [µM] | GI50 (OVCAR-8 ovarian) [µM] | TGI (OVCAR-8 ovarian) [µM] | GI50 (HCT-15 colon) [µM] | TGI (HCT-15 colon) [µM] | GI50 (IGROV1 ovarian) [µM] | TGI (IGROV1 ovarian) [µM] | GI50 (DU-145 prostate) [µM] | TGI (DU-145 prostate) [µM]
Cn1ccnc1C(=O)/C=C/c1ccc(CC(=O)Nc2ccc(S(F)(F)(F)(F)F)cc2)cc1 | 2.91 | 6.66 | 3.86 | 11.6 | 2.93 | 7.02 | 0.517 | 2.03 | 2.89 | 5.87 | 1.83 | 3.88 | 4.94 | 16.5 | 0.878 | 11.7 | 2.62 | 7.29 | 2.25 | 4.53
COc1ccn2c(C(C)=O)cc(C(=O)c3ccc4c(c3)Sc3ccccc3N4)c2c1 | 0.155 | 10.6 | 0.124 | > 23.5 | 0.286 | > 100 | 0.141 | > 100 | 0.0894 | > 100 | 0.0714 | > 100 | 0.14 | > 100 | 0.0982 | – | 0.164 | > 100 | 0.122 | > 100
CCc1ccccc1N1CCN(C(=O)c2cc(OC)c(OC)c(OC)c2)CC1 | – | > 100 | – | 4.55 | – | 5.6 | – | 23.1 | – | > 68.8 | – | > 100 | – | 13.6 | – | > 23.6 | – | > 51.4 | – | 0.715
O=C1c2ccc3c4c5ccc(c24)C(=O)N1CCCOCCCCOCCCNCc1ccc(cc1)CNCCCOCCCCOCCCN(C3=O)C5=O | 1.07 | 2.98 | 1.18 | 2.66 | 1.77 | 6.58 | 0.93 | 2.49 | 0.889 | 1.63 | 0.724 | 1.48 | 1.06 | 2.74 | 0.926 | 1.97 | 0.791 | 1.6 | 0.886 | 1.73
COc1cc(C(O)c2nc3ccccc3s2)cc(OC)c1OC (stereo unspecified) | 58.7 | > 100 | > 100 | > 100 | 47.1 | > 100 | 7.9 | > 100 | 37.8 | > 100 | 33.2 | > 100 | > 100 | > 100 | > 100 | > 100 | 34.3 | > 100 | > 100 | > 100
COC(=O)c1cc(-c2cc(OC)c(OC)c(OC)c2)[nH]c1N/N=C/c1c(Cl)cccc1Cl | 2.75 | 22.1 | 3.07 | 13.3 | 9.54 | 40.3 | 1.94 | > 34.4 | 1.47 | 16.2 | 0.941 | 4.62 | 1.48 | 20.3 | 16 | > 100 | 2.48 | 16.8 | 1.85 | 16.3
O=C1/C(=C/c2ccc([N+](=O)[O-])o2)Oc2ccc(Br)cc21 | 1.8 | 3.84 | 17.6 | 32.2 | 2.12 | 5.37 | 2.32 | 6.03 | 1.84 | 4.09 | 15.2 | 52.9 | 3.01 | 9.32 | 2.62 | 8.36 | 1.94 | 4.1 | 9.31 | 21.1
CN1CCN(c2nc(NCCCCNc3ccnc4cc(Cl)ccc34)c3ccccc3n2)CC1 | 2.14 | 5.93 | 18 | 41.2 | 20.7 | 45.8 | 1.8 | 5.43 | 1.96 | 3.9 | 2.16 | 10 | 4.25 | 20.1 | 2.9 | 14 | 3.49 | 19 | 7 | 21.7
CC1=CCC(OC(=O)C(C)(C)CCC(O)(C(=O)OC2(C(C)C)CCC3(C)OC3C2)C(C)C)(C(C)C)CC1 (stereo unspecified) | 0.643 | 1.39 | 0.692 | 5.81 | 0.693 | 1.85 | 0.234 | 8.85 | 0.298 | 1.11 | 0.0258 | 1.41 | 0.611 | 15.5 | 0.148 | 0.688 | 0.0814 | 0.272 | 0.23 | 0.451
COc1cc2c3c(n(CCCNCC(OC)OC)c(=O)c2cc1OC)-c1cc2c(cc1C3=O)OCO2 | 3.09 | 20 | 22.8 | > 100 | 6.63 | 42.5 | < 0.01 | 0.197 | 1.63 | 22.6 | 17 | > 59.1 | 8.31 | 38.4 | 17.3 | > 100 | 10.3 | > 74.4 | 0.399 | 13.7
O=C1Nc2ccccc2C1Cc1ccc([N+](=O)[O-])cc1 (stereo unspecified) | – | > 100 | – | > 100 | – | > 100 | – | > 100 | – | > 100 | – | > 100 | – | > 100 | – | > 100 | – | > 100 | – | > 100
O=C1C=C[C@@]23C[C@@H](Nc4c(O)c5c6c(c42)=NCCC=6C=N5)SC3=C1 | 1.62 | 3.35 | – | 32.8 | – | 28.7 | 3.13 | > 34.6 | 1.64 | 3.31 | 12 | 25.3 | 1.87 | 3.66 | 2.85 | 7.94 | 2.01 | 4.35 | 17.1 | 30.9
COc1ccc(C(=O)/C=C/c2c(C(F)(F)F)nc3sccn23)cc1OC | 5.91 | > 100 | 3.41 | > 100 | 6.95 | > 100 | 1.62 | > 100 | 4.85 | > 100 | 6.87 | > 100 | 2.4 | > 100 | 2.54 | > 100 | 3.15 | > 100 | 1.64 | 5
CCc1cccc2c3c(sc12)C(c1ccc(Cl)cc1)C(C#N)=C(N)O3 (stereo unspecified) | 1.56 | 7.72 | 1.14 | 29.8 | 0.881 | 9.43 | 0.442 | 7.95 | 0.351 | 5.27 | 0.195 | 0.718 | 0.869 | 11 | 0.418 | 9.59 | 0.53 | 11.1 | 0.596 | 11.4
C/C([O-])=C1\Cc2ccccc2C1=O.C/C([O-])=C1\Cc2ccccc2C1=O.CC[O-].CC[O-].[Ti+4] | 12.9 | 70.9 | 20.3 | 81.7 | 7.47 | 35.7 | 14.8 | 68.8 | 12.4 | 31.6 | 21.6 | 45.9 | 12.9 | 50.4 | 11.8 | 79.4 | 8.46 | 39.5 | 26.4 | > 100
COc1ccc(-c2cnnn2-c2cc(OC)c3c(c2)OCO3)cc1 | 0.194 | 4.63 | 0.348 | > 100 | 5.71 | > 100 | 0.256 | > 100 | 0.235 | > 100 | 0.0741 | > 100 | 0.304 | > 100 | 0.0481 | > 100 | 0.28 | > 100 | 0.291 | –
O=C(CCCCCCSc1nc(-c2ccccc2)cc(-c2ccccc2)n1)NO | 2.54 | 7.62 | 2.42 | 8.84 | 2.94 | 13.2 | 0.405 | 3.1 | 1.35 | 3.85 | 1.7 | 14 | 1.79 | 16.9 | 2.29 | 10.6 | 2.25 | 10.3 | 2.44 | 10.6
NC(=NC1CCCCCCC1)c1ccc(N2CCN(c3ccc(C(N)=NC4CCCCCCC4)cc3)CC2)cc1 | 12.5 | 30.6 | 15.2 | 34.9 | 11.5 | 39.1 | 25.8 | > 100 | 12.6 | 28.3 | 3.7 | 15.7 | 4.9 | 30 | 31.8 | > 100 | 53.1 | > 100 | 1.94 | 12.6
C=CCNCCCN1C(=O)c2ccc3c4c(ccc(c24)C1=O)C(=O)N(CCCNCC=C)C3=O | 0.681 | 5.91 | 0.775 | 3.61 | 0.292 | 0.987 | 0.385 | 3.55 | 0.684 | 1.76 | 0.999 | 2.23 | 0.312 | 2.11 | 0.413 | 2.38 | 0.325 | 1.2 | 0.311 | 0.857
C=C1CC2(C[C@@H](c3ccccc3)O[C@@H](c3ccccc3)C2)OC1=O (stereo partly specified) | – | 4.58 | – | 27.8 | – | 32 | – | 2.57 | – | 7.7 | – | 14.3 | – | 7.48 | – | 5.91 | – | 8.26 | – | 21.4
